Results: patent US20250170141A1, “MRGPRX2 MODULATORS AND RELATED METHODS OF TREATMENT” (Escient Pharmaceuticals, Inc., priority 2023, published 2025)
pIC50: −log10 of the molar value.

Biological target: T1, human MRGPRX2 (Homo sapiens, UniProt Q96LB1)
T1 construct: expressed in transfected cells; host or cells: CHO cells, stably transfected (G418 and Hygromycin B selection)
T1 sequence (Q96LB1 1-330): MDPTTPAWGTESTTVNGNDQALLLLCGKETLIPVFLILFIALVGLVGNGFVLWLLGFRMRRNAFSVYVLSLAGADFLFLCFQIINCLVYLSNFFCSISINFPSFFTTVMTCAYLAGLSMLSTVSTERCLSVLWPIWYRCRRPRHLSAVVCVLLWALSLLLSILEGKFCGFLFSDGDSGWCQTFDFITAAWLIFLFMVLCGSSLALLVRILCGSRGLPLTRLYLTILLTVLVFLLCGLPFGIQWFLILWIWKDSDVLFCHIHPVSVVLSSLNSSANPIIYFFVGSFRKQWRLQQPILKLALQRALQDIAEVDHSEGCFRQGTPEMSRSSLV
Assay: MRGPRX2 activity: IP-One Gq HTRF assay in CHO cells, antagonism versus 0.3 uM Cortistatin-14
Assay type: cell-based
Settings: versus 0.3 uM Cortistatin-14 agonist, CHO cells expressing human MRGPRX2, read-out: MRGPRX2 Antagonist Activity
Procedure, shortened: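 CHO cells stably expressing human MRGPRX2 were treated with a 10-point compound curve (30 uM top, 1:3) plus 0.3 μM Cortistatin-14 in LiCl-containing Tris buffer, pH 8. Incubation was 1 h at 37 °C then 1 h at room temperature; IP-1 was detected by HTRF and IC50 came from the HTRF ratio.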

SMILES | pIC50
COc1cccnc1CNC1=NS(=O)(=O)c2cccc(Cc3ccccc3Cl)c2N1 [Compound 12-25, 5-(2-chlorobenzyl)-3-(((3-methoxypyridin-2-yl)methyl)amino)-4H-benzo[e][1,2,4]thiadiazine 1,1-dioxide] | > 7.00
COc1ccccc1CNC1=NS(=O)(=O)c2cc(F)c(F)c(Cc3ccccc3Cl)c2N1 [Compound 4-9, 5-(2-chlorobenzyl)-6,7-difluoro-3-((2-methoxybenzyl)amino)-4H-benzo[e][1,2,4]thiadiazine 1,1-dioxide] | 6.00 to 6.30
O=S1(=O)N=C(NCc2ccccc2F)Nc2c(Cc3cccc(F)c3)cccc21 [Compound 6-8, 5-(3-fluorobenzyl)-3-((2-fluorobenzyl)amino)-4H-benzo[e][1,2,4]thiadiazine 1,1-dioxide] | > 7.00
CC(C)c1ccc(NC2=NS(=O)(=O)c3cc(F)c(F)c(Cc4ccccc4Cl)c3N2)cc1 [Compound 4-15, 5-(2-chlorobenzyl)-6,7-difluoro-3-((4-isopropylphenyl)amino)-4H-benzo[e][1,2,4]thiadiazine 1,1-dioxide] | < 5.60
O=S1(=O)N=C(NCc2ncccc2F)Nc2c(Cc3ccccc3Cl)cccc21 [Compound 12-2, 5-(2-chlorobenzyl)-3-(((3-fluoropyridin-2-yl)methyl)amino)-4H-benzo[e][1,2,4]thiadiazine 1,1-dioxide] | > 7.00
O=S1(=O)N=C(NCc2cccc(F)n2)Nc2c1ccc(F)c2Oc1ccccc1Cl [Compound 2-4, 5-(2-chlorophenoxy)-6-fluoro-3-(((6-fluoropyridin-2-yl)methyl)amino)-4H-benzo[e][1,2,4]thiadiazine 1,1-dioxide] | > 7.00
COc1cccnc1CNC1=NS(=O)(=O)c2ccc(F)c(Oc3ccccc3Cl)c2N1 [Compound 1-30, 5-(2-chlorophenoxy)-6-fluoro-3-(((3-methoxypyridin-2-yl)methyl)amino)-4H-benzo[e][1,2,4]thiadiazine 1,1-dioxide] | 6.30 to 7.00
O=S1(=O)N=C(NCc2cnccc2C(F)(F)F)Nc2c1cc(F)c(F)c2Cc1ccccc1Cl [Compound 4-17, 5-(2-chlorobenzyl)-6,7-difluoro-3-(((4-(trifluoromethyl)pyridin-3-yl)methyl)amino)-4H-benzo[e][1,2,4]thiadiazine 1,1-dioxide] | 6.30 to 7.00
C=C(c1ccccc1F)c1c(F)ccc2c1NC(NCc1ncccc1F)=NS2(=O)=O [Compound 13-3, 6-fluoro-5-(1-(2-fluorophenyl)vinyl)-3-(((3-fluoropyridin-2-yl)methyl)amino)-4H-benzo[e][1,2,4]thiadiazine 1,1-dioxide] | > 7.00
O=S1(=O)N=C(NCc2ncccc2F)Nc2c1ccc(F)c2Oc1ccc(Cl)cc1Cl [Compound 1-16, 5-(2,4-dichlorophenoxy)-6-fluoro-3-(((3-fluoropyridin-2-yl)methyl)amino)-4H-benzo[e][1,2,4]thiadiazine 1,1-dioxide] | 6.30 to 7.00
O=S1(=O)N=C(NCc2cccnc2Cl)Nc2c(Cc3ccccc3Cl)cccc21 [Compound 12-18, 5-(2-chlorobenzyl)-3-(((2-chloropyridin-3-yl)methyl)amino)-4H-benzo[e][1,2,4]thiadiazine 1,1-dioxide] | > 7.00
O=S1(=O)N=C(NCc2ncccc2F)Nc2c1ccc(F)c2Oc1c(Cl)cccc1Cl [Compound 1-9, 5-(2,6-dichlorophenoxy)-6-fluoro-3-(((3-fluoropyridin-2-yl)methyl)amino)-4H-benzo[e][1,2,4]thiadiazine 1,1-dioxide] | > 7.00
O=S1(=O)N=C(NCc2ncccc2F)Nc2c1ccc(F)c2Oc1cc(Cl)ccc1Cl [Compound 1-38, 5-(2,5-dichlorophenoxy)-6-fluoro-3-(((3-fluoropyridin-2-yl)methyl)amino)-4H-benzo[e][1,2,4]thiadiazine 1,1-dioxide] | > 7.00
O=S1(=O)N=C(NCc2ccccc2F)Nc2c(Cc3ccc(Cl)cc3)cccc21 [Compound 6-13, 5-(4-chlorobenzyl)-3-((2-fluorobenzyl)amino)-4H-benzo[e][1,2,4]thiadiazine 1,1-dioxide] | 6.30 to 7.00
O=S1(=O)N=C(NCc2ccc(F)c(F)c2)Nc2c(Cc3ccccc3Cl)cccc21 [Compound 12-14, 5-(2-chlorobenzyl)-3-((3,4-difluorobenzyl)amino)-4H-benzo[e][1,2,4]thiadiazine 1,1-dioxide] | > 7.00
O=S1(=O)N=C(NCc2ncccc2F)Nc2c1ccc(F)c2Oc1c(F)cccc1F [Compound 1-33, 5-(2,6-difluorophenoxy)-6-fluoro-3-(((3-fluoropyridin-2-yl)methyl)amino)-4H-benzo[e][1,2,4]thiadiazine 1,1-dioxide] | 6.00 to 6.30
O=S1(=O)N=C(NCc2cnccc2C(F)(F)F)Nc2c1ccc(F)c2Oc1ccccc1Cl [Compound 1-28, 5-(2-chlorophenoxy)-6-fluoro-3-(((4-(trifluoromethyl)pyridin-3-yl)methyl)amino)-4H-benzo[e][1,2,4]thiadiazine 1,1-dioxide] | 6.00 to 6.30
O=S1(=O)N=C(NCc2cccnc2F)Nc2c1cc(F)c(F)c2Cc1ccccc1Cl [Compound 4-7, 5-(2-chlorobenzyl)-6,7-difluoro-3-(((2-fluoropyridin-3-yl)methyl)amino)-4H-benzo[e][1,2,4]thiadiazine 1,1-dioxide] | 5.60 to 6.00
O=S1(=O)N=C(NCc2ncccc2C(F)(F)F)Nc2c(Cc3ccccc3Cl)cccc21 [Compound 12-29, 5-(2-chlorobenzyl)-3-(((3-(trifluoromethyl)pyridin-2-yl)methyl)amino)-4H-benzo[e][1,2,4]thiadiazine 1,1-dioxide] | > 7.00
CC(c1ccccc1Cl)c1c(F)ccc2c1NC(NCc1ncccc1F)=NS2(=O)=O (centres unmarked) [Compound 8-1, 5-(1-(2-chlorophenyl)ethyl)-6-fluoro-3-(((3-fluoropyridin-2-yl)methyl)amino)-4H-benzo[e][1,2,4]thiadiazine 1,1-dioxide] | > 7.00
O=S1(=O)N=C(NCc2ccccc2F)Nc2c(Cc3cccc(Cl)c3)cccc21 [Compound 6-11, 5-(3-chlorobenzyl)-3-((2-fluorobenzyl)amino)-4H-benzo[e][1,2,4]thiadiazine 1,1-dioxide] | > 7.00
O=S1(=O)N=C(NCc2ccc(Cl)c(Cl)c2)Nc2c(Cc3ccccc3Cl)cccc21 [Compound 12-12, 5-(2-chlorobenzyl)-3-((3,4-dichlorobenzyl)amino)-4H-benzo[e][1,2,4]thiadiazine 1,1-dioxide] | > 7.00
Cc1cccc(C)c1Cc1c(F)ccc2c1NC(NCc1ncccc1F)=NS2(=O)=O [Compound 5-1, 5-(2,6-dimethylbenzyl)-6-fluoro-3-(((3-fluoropyridin-2-yl)methyl)amino)-4H-benzo[e][1,2,4]thiadiazine 1,1-dioxide] | > 7.00

The remaining lines, values ahead:

pIC50 | SMILES
6.30 to 7.00 | O=C(c1ccccc1Cl)c1c(F)ccc2c1NC(NCc1ncccc1F)=NS2(=O)=O [Compound 16-6, (2-chlorophenyl)(6-fluoro-3-(((3-fluoropyridin-2-yl)methyl)amino)-1,1-dioxido-4H-benzo[e][1,2,4]thiadiazin-5-yl)methanone]
6.30 to 7.00 | CC(c1cccc(OC(F)(F)F)c1)c1c(F)ccc2c1NC(NCc1cccc(F)c1)=NS2(=O)=O (centres unmarked) [Compound 22-14, 6-fluoro-3-((3-fluorobenzyl)amino)-5-(1-(3-(trifluoromethoxy)phenyl)ethyl)-4H-benzo[e][1,2,4]thiadiazine 1,1-dioxide]
> 7.00 | Cc1cc(C(C)c2c(F)ccc3c2NC(NCc2cccc(F)c2)=NS3(=O)=O)ccn1 (centres unmarked) [Compound 22-21, 6-fluoro-3-((3-fluorobenzyl)amino)-5-(1-(2-methylpyridin-4-yl)ethyl)-4H-benzo[e][1,2,4]thiadiazine 1,1-dioxide]
> 7.00 | COc1ccccc1C(C)c1c(F)ccc2c1NC(NCc1cccc(F)c1)=NS2(=O)=O (centres unmarked) [Compound 22-26, 6-fluoro-3-((3-fluorobenzyl)amino)-5-(1-(2-methoxyphenyl)ethyl)-4H-benzo[e][1,2,4]thiadiazine 1,1-dioxide]
6.30 to 7.00 | CC(c1c(F)ccc2c1NC(NCc1cccc(F)c1)=NS2(=O)=O)c1c[nH]c2ccccc12 (centres unmarked) [Compound 22-18, 5-(1-(1H-indol-3-yl)ethyl)-6-fluoro-3-((3-fluorobenzyl)amino)-4H-benzo[e][1,2,4]thiadiazine 1,1-dioxide]
> 7.00 | COc1ccc(C(C)c2c(F)ccc3c2NC(NCc2cccc(F)c2)=NS3(=O)=O)c(F)c1 (centres unmarked) [Compound 22-7, 6-fluoro-5-(1-(2-fluoro-4-methoxyphenyl)ethyl)-3-((3-fluorobenzyl)amino)-4H-benzo[e][1,2,4]thiadiazine 1,1-dioxide]
> 7.00 | O=C(c1ccccc1Cl)c1cccc2c1NC(NCc1ncccc1Cl)=NS2(=O)=O [Compound 16-1, (2-chlorophenyl)(3-(((3-chloropyridin-2-yl)methyl)amino)-1,1-dioxido-4H-benzo[e][1,2,4]thiadiazin-5-yl)methanone]
6.00 to 6.30 | CC(C)(c1ccccc1F)c1cccc2c1NC(NCc1ncccc1Cl)=NS2(=O)=O [Compound 15-1, 3-(((3-chloropyridin-2-yl)methyl)amino)-5-(2-(2-fluorophenyl)propan-2-yl)-4H-benzo[e][1,2,4]thiadiazine 1,1-dioxide]
6.30 to 7.00 | CC(c1ccc2c(c1)CCCC2)c1c(F)ccc2c1NC(NCc1cccc(F)c1)=NS2(=O)=O (centres unmarked) [Compound 22-9, 6-fluoro-3-((3-fluorobenzyl)amino)-5-(1-(5,6,7,8-tetrahydronaphthalen-2-yl)ethyl)-4H-benzo[e][1,2,4]thiadiazine 1,1-dioxide]
